Where “and” joins values, the source holds several entries; their conditions need not be identical. Equal entries are not always repeated. Where two headings read alike, the source gives them in different places.
Tests used:
[1] = system: MDA-MB-231 cells; assay: Secondary tumorsphere formation; format: cell-based, human; conditions: 2.5 μM, up to 7 days
Procedure: either vehicle, pivarubicin (NV), or doxorubicin (DOX), and cultured for up to 7 days prior to obtaining the digital images shown in FIG. 6C (vehicle only), FIG. 6D (2.5 uM PIV), and FIG. 6E (2.5 uM DOX). The bar graph in FIG. 6F represents the mean number of tumorspheres greater than […] in diameter/well (n>3).

[2] = system: LM2 tumors; assay: Orthotopic xenograft of luminescent MDA-MB-231 (LM2) cells in mammary glands
Procedure: Monolayer LM2 cells were trypsinized and resuspended in DMEM media containing 10% FBS and 1× antibiotic/antimitotic. Cell concentration was adjusted to yield 2.5 […] for each 10 uL injection in PBS. After preparation for injection, cells were kept on ice at all times. Cells were surgically implanted into the left and right inguinal mammary glands of 4-week-old female NSG mice (NOD/SCID IL2Rγ−/−; Jackson Laboratory [Bar Harbor Me.] #5557) bred in-house. Mice were anesthetized with 1.2% avertin via intraperitoneal (i.p.) injection prior to surgery. Mice were also injected subcutaneously between shoulder blades with rimadyl for pain relief on day of surgery and on day following surgery. Primary tumor growth prior to and during treatment was monitored initially by manual palpation for tumor appearance, then twice weekly using digital calipers. Tumor volume was calculated by the formula: Volume=(Width2×Length)/2. When tumors attained a volume of approximately […], cohorts of 10 randomized drug-naïve, female, NSG mice (8±1 weeks old, 23±2 g) were administered the maximum tolerated dose (MTD) of pivarubicin, doxorubicin or the equivalent volume of vehicle (70% sterile saline, 15% ethanol, 15% Cremophor EL) as a bolus i.p. injection in parallel experiments. Tumor volumes were measured in a blinded manner.
Mice were imaged using Xenogen In Vivo Imaging System® Lumina from Perkin Elmer (Waltham Mass.). Stock D-Luciferin, Firefly, potassium salt (Perkin Elmer, 122799) was prepared in DPBS at a concentration of 30 mg/mL and sterile filtered with 0.2 micrometer syringe filter. Luciferin was further diluted to 15 mg/mL in DPBS prior to injection. Mice were injected i.p. with 200 uL of luciferin. Primary tumors were imaged by placing mice in dorsal recumbency using luminescent setting of auto exposure, field of view D with resolution setting of 4 (medium binning), 10 minutes after injection with luciferin, approximately 5 minutes following anesthetization with isoflurane. Data are reported as total flux in photons per second (p/s) using Living Image software.
In a study of doxorubicin treatment of TNBC-bearing NSG mice, LM2 cells were implanted into the 4R and 4L cleared mammary fat pads of female NSG mice and permitted to proliferate for 26 days until a tumor volume range of 125-190 mm3 was reached based on caliper measurements. Doxorubicin was administered IP rapid push in 70% sterile saline, 15% EtOH, 15% Cremophor EL at 14-day intervals, with tumor volumes measured at indicated days post-implantation, as summarized in FIG. 7A. […] At endpoint, mice were euthanized, and primary tumors resected for volume (FIG. 7B), weight (FIG. 7C), and luminescence (FIG. 7D) measurements. Endpoint results are expressed as the mean±standard error of 10 mice per group. Statistical significance was determined by the Wilcoxon rank-sum test.
Pivarubicin treatment of TNBC-bearing NSG mice was also studied. LM2 cells were implanted into the 4R and 4L cleared mammary fat pads of female NSG mice and permitted to proliferate for 22-24 days until a tumor volume range of 125-190 mm3 was reached based on caliper measurements. Pivarubicin was administered IP rapid push in 70% sterile saline, 15% EtOH, 15% Cremophor EL as either a single dose at 26.6 mg/kg (FIG. 8A) or in two 16.5-mg/kg doses at a 14-day interval (FIG. 8B) with tumor volumes measured at indicated days post-implantation. […] At endpoint, mice were euthanized, and primary tumors resected for volume (FIG. 8C) and weight (FIG. 8D) measurements. Results are expressed as the mean±standard error of 10 mice per group. Statistical significance was determined by the Wilcoxon rank-sum test.

[3] = system: MDA-MB-231 cells; assay: MTT cytotoxicity, TNBC monolayer MDA-MB-231; format: cell-based, human; conditions: MDA-MB-231, 48 h
Procedure: Rottlerin treatment of cells, cell viability analysis by MTT [28] and immunoblot identification of protein expression were performed and described previously.
(§1) Based upon the ability of pivarubicin to circumvent multiple mechanisms of resistance against doxorubicin, we then examined the efficacy of pivarubicin against TNBC in comparison to doxorubicin, using the following procedure, using two basal TNBC cell lines. MDA-MB-231 cells and SUM-159 cells were maintained under adherent monolayer growth conditions. Upon reaching 50% confluency, cells were treated for 48 h with the dose range of doxorubicin or pivarubicin as indicated in FIGS. 6A and 6B.
In the absence of specific receptor targets, the current treatment of metastatic TNBC relies on doxorubicin-based multidrug therapy, with only limited effectiveness. […] Once achieving a primary tumor volume of 150-190 mm^3, mice were randomized into three cohorts for treatment with the MTD of pivarubicin or doxorubicin, or the equivalent volume per body weight of vehicle.

[4] = system: SUM159 cells; assay: MTT cytotoxicity, TNBC monolayer SUM159; format: cell-based; conditions: SUM159, 48 h
Procedure: as §1, with “6B. Cell viability was corrected for death observed in vehicle-only-treated cells (<1% ethanol final well concentration).” for “6B.”

[5] = two doses of 16.5 mg/kg i.p. at two-week interval, endpoint

SMILES	inhibition of secondary tumorsphere formation [1]	tumor growth compared with vehicle treatment (volume, weight) ([2]; 1.4 mg/kg, then 1.6 mg/kg 14 days later, i.p.)	weight loss in tumor-bearing mice ([2]; after 1.4 mg/kg and 1.6 mg/kg)	IC90 ([3]; Homo sapiens) [µM]	IC90 [3] [µM]	IC50 [4] [nM]	IC90 [4] [nM]	mean decrease in tumor volume compared with mean volume prior to drug administration ([2]; single MTD dose (26.6 mg/kg i.p.)) [%]	mean weight loss (poorly reversible) ([2]; single MTD, tumor-bearing NSG mice) [%]	decrease in tumor volume compared with vehicle treatment [2, 5] [%]	decrease in tumor weight compared with vehicle treatment [2, 5] [%]	IC50 [3] [nM]	IC90 ([3]; read-out: IC90)	IC50 ([4]; MTT, read-out: IC50) [nM]	IC90 ([4]; MTT, read-out: IC90) [nM]
COc1cccc2c1C(=O)c1c(O)c3c(c(O)c1C2=O)C[C@@](O)(C(=O)CO)C[C@@H]3O[C@H]1C[C@H](N)[C@H](O)[C@H](C)O1 [Doxorubicin, reference compound]	partial inhibition	failed to exhibit reduced growth	excessive and irreversible weight loss	> 20	20	4000	> 20000	–	–	–	–	–	–	–	–
COc1cccc2c1C(=O)c1c(O)c3c(c(O)c1C2=O)C[C@@](O)(C(=O)COC(=O)C(C)(C)C)C[C@@H]3O[C@H]1C[C@H](NCc2ccccc2)[C@H](O)[C@H](C)O1 [Pivarubicin, N-Benzyladriamycin-14-pivalate]	complete inhibition	–	–	–	–	–	–	40	20	50	40	2500	4.5 µM and 5.1 µM	1500	1700
